Like-named read-outs stand apart in the source and are kept apart here.
What was measured:
HCMV Strain AD169 = test: Viral qPCR assay, HCMV; format: cell-based, Human cytomegalovirus; conditions: MRC-5 cells, 0.05-0.1 pfu/cell, growth media or 50% fetal bovine serum, viral genome copies by qPCR, read-out: CMV Cell (EC50)
Outline: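 HCMV AD169 at 0.05-0.1 pfu/cell infected MRC-5 cells, added to 10-point 3-fold compound dilutions, in growth medium or medium with 50% FBS; ~72 h at 37°C. Viral genome copies by TaqMan qPCR against plasmid standard curve, normalized to DMSO and uninfected controls; EC50 from 4-parameter fit.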

[1] = biological target: T1, varicella zoster virus DNA polymerase (Varicella-zoster virus, UniProt P09252); test: VZV polymerase assay (AlphaLISA); format: biochemical; conditions: VZV polymerase 0.4 nM; 30 min pre-incubation; 60 min at 37° C.
T1 construct: made in house; host or cells: SF21 insect cells (baculovirus vector)
T1 sequence (P09252 whole entry): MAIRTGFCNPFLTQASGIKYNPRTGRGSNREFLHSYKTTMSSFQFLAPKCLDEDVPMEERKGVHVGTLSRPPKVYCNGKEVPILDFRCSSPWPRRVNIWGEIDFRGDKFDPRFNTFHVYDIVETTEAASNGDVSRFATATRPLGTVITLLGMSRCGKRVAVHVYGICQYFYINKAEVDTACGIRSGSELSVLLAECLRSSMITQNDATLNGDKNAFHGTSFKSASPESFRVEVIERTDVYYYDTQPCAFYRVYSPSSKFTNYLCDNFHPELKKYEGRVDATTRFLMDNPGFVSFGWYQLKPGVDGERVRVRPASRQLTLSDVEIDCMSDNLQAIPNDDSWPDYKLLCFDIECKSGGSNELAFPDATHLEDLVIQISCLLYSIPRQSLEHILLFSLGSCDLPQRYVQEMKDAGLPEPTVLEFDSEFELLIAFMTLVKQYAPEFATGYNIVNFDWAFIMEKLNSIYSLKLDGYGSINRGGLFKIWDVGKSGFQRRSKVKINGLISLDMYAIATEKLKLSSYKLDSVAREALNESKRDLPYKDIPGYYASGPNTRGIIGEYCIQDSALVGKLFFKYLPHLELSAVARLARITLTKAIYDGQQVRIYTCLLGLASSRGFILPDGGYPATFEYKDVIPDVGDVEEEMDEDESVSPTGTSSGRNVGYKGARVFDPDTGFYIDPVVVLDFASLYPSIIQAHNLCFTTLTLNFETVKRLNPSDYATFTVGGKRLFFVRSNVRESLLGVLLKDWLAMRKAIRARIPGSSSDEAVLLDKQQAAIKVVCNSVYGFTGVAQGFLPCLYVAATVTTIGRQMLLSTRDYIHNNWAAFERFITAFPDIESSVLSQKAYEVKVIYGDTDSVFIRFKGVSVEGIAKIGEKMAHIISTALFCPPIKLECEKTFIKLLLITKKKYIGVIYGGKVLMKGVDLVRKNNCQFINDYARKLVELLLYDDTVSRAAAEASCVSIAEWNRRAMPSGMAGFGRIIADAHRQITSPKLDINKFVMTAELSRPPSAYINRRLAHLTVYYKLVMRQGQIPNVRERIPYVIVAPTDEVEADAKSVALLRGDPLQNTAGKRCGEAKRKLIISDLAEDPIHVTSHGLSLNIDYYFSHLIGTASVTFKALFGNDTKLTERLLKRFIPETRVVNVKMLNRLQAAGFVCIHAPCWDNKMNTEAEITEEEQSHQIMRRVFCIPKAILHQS
Method: Human cytomegalovirus and varicella zoster virus DNA polymerases were expressed via baculovirus vector in SF21 cells and purified. Heterodimeric nucleic acid substrate used in the herpesvirus polymerase reactions was generated by annealing a 59-mer template to a 17-mer digoxigenin-labeled primer. Polymerase (HCMV final concentration of 0.2 nM; VZV final concentration of 0.4 nM) was combined with an inhibitor compound or DMSO in assay buffer (10 mM HEPES, pH 7.5, 25 mM KCl, 25 mM NaCl, 5 mM MgCl2, 5% glycerol, 0.67 mg/ml bovine serum albumin, and 1 mM tris(2-carboxyethyl)phosphine), and this mixture was pre-incubated for 30 minutes at room temperature in 384-well microtiter plates. The polymerization reaction was initiated by the addition of template/primer substrate (final concentration: 1.6 nM), and dNTPs (final concentration: 24 nM dCTP, 24 nMdGTP, 16 nM dATP, 16 nM dTTP, and 0.8 nM biotin-dUTP). After 60 min incubation at 37° C., reactions were terminated with quench buffer (25 mM HEPES pH 7.5, 100 mM NaCl, 0.25% Tween-20, 12 mM EDTA, and 1 mg/ml bovine serum albumin). Incorporation of biotinylated UTP was detected with 2.5-5 ug/ml anti-DIG AlphaLISA acceptor beads and 5-10 ug/ml streptavidin AlphaLISA donor beads (PerkinElmer). Compound effects were normalized to the window defined by the controls (DMSO only and pre-quenched wells) and were fit using a 4-parameter algorithm to report an IC50.

HSV-1 Strain F = test: Viral qPCR assay, HSV-1; format: cell-based, Herpes Simplex Virus type 1; conditions: Vero or MRC5 cells, 0.0005-0.004 pfu/cell, growth medium, viral genome copies by qPCR, read-out: HSV1 Cell (EC50)
Outline: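 HSV-1 strain F at 0.0005–0.004 pfu/cell infected Vero or MRC5 cells, which were added to a 10-point 3-fold compound dilution and cultured ~72 h at 37 °C. Viral genomes in the lysates were quantified by TaqMan qPCR against a plasmid standard curve, in some runs normalized to cellular PPIA. EC50 came from a 4-parameter fit of % effect.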

VZV = test: Viral qPCR assay, VZV; format: cell-based, varicella zoster virus; conditions: MeWo or MRC5 cells, 0.04-0.1 pfu/cell, growth medium, viral genome copies by qPCR
Outline: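 VZV strain Street at 0.04-0.1 pfu/cell infected MeWo or MRC5 cells added to 10-point, 3-fold compound dilutions; ~72 h at 37° C. Viral genome copies by TaqMan qPCR against plasmid standard curve, sometimes normalised to PPIA, scaled between uninfected and DMSO-infected controls; EC50 from 4-parameter fit.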

[2] = biological target: T2, Human cytomegalovirus DNA polymerase (Human cytomegalovirus, UniProt P08546); test: CMV polymerase assay (AlphaLISA); format: biochemical; conditions: HCMV polymerase 0.2 nM; 30 min pre-incubation; 60 min at 37° C.; read-out: CMV (IC50)
T2 construct: made in house; host or cells: SF21 insect cells (baculovirus vector)
T2 sequence (P08546 whole entry): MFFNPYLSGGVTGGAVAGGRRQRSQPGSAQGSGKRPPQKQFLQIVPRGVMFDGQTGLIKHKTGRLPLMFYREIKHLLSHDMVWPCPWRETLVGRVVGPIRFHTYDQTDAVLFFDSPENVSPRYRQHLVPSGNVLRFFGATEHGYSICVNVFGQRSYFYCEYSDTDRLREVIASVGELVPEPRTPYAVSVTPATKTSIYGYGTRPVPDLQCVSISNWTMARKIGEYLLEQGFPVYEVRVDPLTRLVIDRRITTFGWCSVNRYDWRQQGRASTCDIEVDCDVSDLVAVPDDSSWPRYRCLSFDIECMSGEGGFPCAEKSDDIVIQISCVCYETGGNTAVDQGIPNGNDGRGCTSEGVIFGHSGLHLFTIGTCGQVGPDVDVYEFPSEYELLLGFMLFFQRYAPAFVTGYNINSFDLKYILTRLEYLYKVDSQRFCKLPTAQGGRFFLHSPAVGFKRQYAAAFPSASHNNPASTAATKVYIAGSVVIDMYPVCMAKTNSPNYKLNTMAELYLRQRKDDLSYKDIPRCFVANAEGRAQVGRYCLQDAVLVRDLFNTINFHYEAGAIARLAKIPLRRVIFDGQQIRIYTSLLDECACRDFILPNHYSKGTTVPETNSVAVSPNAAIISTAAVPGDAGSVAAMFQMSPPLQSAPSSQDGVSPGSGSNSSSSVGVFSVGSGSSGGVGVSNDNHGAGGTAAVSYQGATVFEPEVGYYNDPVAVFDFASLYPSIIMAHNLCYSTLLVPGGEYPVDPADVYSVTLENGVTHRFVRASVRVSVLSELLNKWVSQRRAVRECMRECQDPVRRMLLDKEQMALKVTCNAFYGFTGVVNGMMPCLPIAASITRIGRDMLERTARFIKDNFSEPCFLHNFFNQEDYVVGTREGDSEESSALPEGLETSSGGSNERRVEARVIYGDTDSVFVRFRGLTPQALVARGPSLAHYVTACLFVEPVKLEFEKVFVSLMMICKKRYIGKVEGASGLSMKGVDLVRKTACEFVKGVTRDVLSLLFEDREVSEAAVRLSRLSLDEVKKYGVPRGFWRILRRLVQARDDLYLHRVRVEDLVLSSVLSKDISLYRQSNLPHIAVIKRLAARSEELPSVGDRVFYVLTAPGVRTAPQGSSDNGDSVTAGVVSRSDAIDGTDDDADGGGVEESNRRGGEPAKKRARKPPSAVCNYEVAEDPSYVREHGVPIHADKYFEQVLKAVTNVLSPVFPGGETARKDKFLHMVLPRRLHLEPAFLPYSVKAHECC
Outline: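 Baculovirus-expressed polymerase (HCMV 0.2 nM, VZV 0.4 nM) preincubated 30 min with compound, then reacted 60 min at 37 °C with 1.6 nM DIG-primer/59-mer template and low-nM dNTPs including 0.8 nM biotin-dUTP. Incorporation detected by AlphaLISA; IC50 from a 4-parameter fit normalized to DMSO and pre-quenched controls.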

[3] = Human betaherpesvirus 5, AD169, MRC5, 72 h

| Structure (SMILES) | IC50 [1] [nM] | IC50 [2] [nM] | EC50 (HCMV Strain AD169; [3]) [nM] | EC50 (HSV-1 Strain F; Human alphaherpesvirus 1, 72 h) [nM] | EC50 (VZV; Human alphaherpesvirus 3, 72 h) [nM] | EC50 (HCMV Strain AD169; ~72 hrs) [nM] | EC50 (HSV-1 Strain F; ~72 hrs) [nM] | EC50 (VZV; ~72 hrs) [nM] |
| --- | --- | --- | --- | --- | --- | --- | --- | --- |
| COc1nc(N2CCC(C(C)(C)N)C2)c(O[C@H]2CCN3C(=O)OC[C@@H]3C2)cc1C(=O)NCc1ccc(Cl)cc1 (single isomer, unassigned) [Compound 72] | 12.4 | 45.5 |  |  |  | 276 | 559 | 665 |
| COc1nc(-c2cnn(C(F)F)c2)c(O[C@H]2CCN3C(=O)OC[C@@H]3C2)cc1C(=O)NCc1ccc(Cl)c(F)c1 [Compound 55] | 5.38 | 3.16 | 161 | 102 | 178 |  |  |  |
| COc1nc(-c2cccnc2)c(O[C@H]2CCN3C(=O)OC[C@@H]3C2)cc1C(=O)NCc1ccc(Cl)cc1 [Compound 40] | 10.2 | 15.9 | 206 | 123 | 200 |  |  |  |
| COc1nc(C)c(O[C@H]2CCN3C(=O)OC[C@@H]3C2)cc1C(=O)NCc1ccc(Cl)cc1 [Compound 8] | 15 | 37.9 | 415 | 866 | 841 |  |  |  |
| COc1nc(Br)c(O[C@H]2CCN3C(=O)OC[C@@H]3C2)cc1C(=O)NCc1ccc(Cl)cc1 [Int-3] | 21.3 | 55.9 | 822 | 832 | 651 |  |  |  |
| COc1nc(-c2cnn3c2CCC3)c(O[C@H]2CCN3C(=O)OC[C@@H]3C2)cc1C(=O)NCc1ccc(Cl)cc1 [Compound 24] | 4.03 | 7.58 | 200 | 195 | 390 |  |  |  |
| COc1nc(-c2ccnnc2)c(O[C@H]2CCN3C(=O)OC[C@@H]3C2)cc1C(=O)NCc1ccc(Cl)cc1 [Compound 37] | 8.24 | 8.81 | 180 | 144 | 178 |  |  |  |
| COc1nc(-c2cnn(C3CC3)c2)c(O[C@H]2CCN3C(=O)OC[C@@H]3C2)cc1C(=O)NCc1ccc(Cl)cc1 [Compound 22] | 4.84 | 3.69 | 170 | 93 | 129 |  |  |  |
| COc1nc(N2CC(C(C)(C)O)C2)c(O[C@H]2CCN3C(=O)OC[C@@H]3C2)cc1C(=O)NCc1ccc(Cl)cc1 [Compound 70] | 14.5 | 15 | 194 | 278 | 409 |  |  |  |
| COc1nc(-c2nnc(C3CC3)s2)c(O[C@H]2CCN3C(=O)OC[C@@H]3C2)cc1C(=O)NCc1ccc(Cl)cc1 [Compound 83] | 6.05 | 11.7 | 153 | 83.5 | 110 |  |  |  |
| COc1nc(-c2cnn(Cc3ccccn3)c2)c(O[C@H]2CCN3C(=O)OC[C@@H]3C2)cc1C(=O)NCc1ccc(Cl)cc1 [Compound 15] | 12.9 | 12 | 144 | 233 | 355 |  |  |  |
| COc1nc(-c2cncnc2)c(O[C@H]2CCN3C(=O)OC[C@@H]3C2)cc1C(=O)NCc1ccc(Cl)cc1 [Compound 38] | 5.86 | 9.81 | 111 | 83.1 | 150 |  |  |  |

Now those with a lower IC50 [1], led by results:

| IC50 [1] [nM] | IC50 [2] [nM] | Structure (SMILES) | EC50 (HCMV Strain AD169; [3]) [nM] | EC50 (HSV-1 Strain F; Human alphaherpesvirus 1, 72 h) [nM] | EC50 (VZV; Human alphaherpesvirus 3, 72 h) [nM] | EC50 (HCMV Strain AD169; ~72 hrs) [nM] | EC50 (HSV-1 Strain F; ~72 hrs) [nM] | EC50 (VZV; ~72 hrs) [nM] |
| --- | --- | --- | --- | --- | --- | --- | --- | --- |
| 0.508 | 11.3 | COc1nc(-c2cnc(C3CC3)o2)c(O[C@H]2CCN3C(=O)OC[C@@H]3C2)cc1C(=O)NCc1ccc(Cl)cc1 [Compound 10] | 134 | 150 | 131 |  |  |  |
| 1.71 | 4.87 | COc1nc(-c2cc(C)no2)c(O[C@H]2CCN3C(=O)OC[C@@H]3C2)cc1C(=O)NCc1ccc(Cl)cc1 [Compound 9] | 111 | 85.7 | 98.4 |  |  |  |
| 3.54 | 22.8 | COc1nc(N2CCC(C(C)(C)N)C2)c(O[C@H]2CCN3C(=O)OC[C@@H]3C2)cc1C(=O)NCc1ccc(Cl)cc1 (single isomer, unassigned) [Compound 71] | 221 | 396 | 468 |  |  |  |
| 2.96 | 8.84 | CC(C)(O)COc1nc(-c2cnn(C(F)F)c2)c(O[C@H]2CCN3C(=O)OC[C@@H]3C2)cc1C(=O)NCc1ccc(Cl)cc1 [Compound 86] | 213 | 130 | 232 |  |  |  |
| 0.715 | 7.52 | COc1nc(-c2cnn(C(F)F)c2)c(O[C@H]2CCN3C(=O)OC[C@@H]3C2)cc1C(=O)NCc1ccc(Cl)cc1 [Compound 4] | 146 | 105 | 141 |  |  |  |
| 0.0674 | 1.05 | COc1nc(-c2cnco2)c(O[C@H]2CCN3C(=O)OC[C@@H]3C2)cc1C(=O)NCc1ccc(Cl)cc1 [Compound 6] | 77 | 87.5 | 110 |  |  |  |
| 1.53 | 4.69 | COc1nc(-c2cnc(N)c(F)c2)c(O[C@H]2CCN3C(=O)OC[C@@H]3C2)cc1C(=O)NCc1ccc(Cl)cc1 [Compound 46] | 165 | 51.6 | 121 |  |  |  |
| 0.351 | 6.32 | COc1nc(-c2cnco2)c(O[C@H]2CCN3C(=O)OC[C@@H]3C2)cc1C(=O)NCc1ccc(C#N)cc1 [Compound 60] | 29.8 | 65 | 90.4 |  |  |  |
| 0.0412 | 1.44 | COc1nc(-c2nc(C)ns2)c(O[C@H]2CCN3C(=O)OC[C@@H]3C2)cc1C(=O)NCc1ccc(Cl)cc1 [Compound 61] | 60.1 | 49 | 70.8 |  |  |  |
| 0.161 | 4.11 | COc1nc(-c2cnc(C)o2)c(O[C@H]2CCN3C(=O)OC[C@@H]3C2)cc1C(=O)NCc1ccc(Cl)cc1 [Compound 5] | 71.4 | 80.1 | 107 |  |  |  |
| 1.47 | 15.6 | COCCOc1nc(-c2cnn(C(F)F)c2)c(O[C@H]2CCN3C(=O)OC[C@@H]3C2)cc1C(=O)NCc1ccc(Cl)cc1 [Compound 85] | 187 | 143 | 342 |  |  |  |
| 0.252 | 4.3 | COc1nc(-c2ncco2)c(O[C@H]2CCN3C(=O)OC[C@@H]3C2)cc1C(=O)NCc1ccc(Cl)cc1 [Compound 62] | 73 | 129 | 157 |  |  |  |
| 2.91 | 5.55 | COc1nc(-c2cnc(C(C)(C)O)s2)c(O[C@H]2CCN3C(=O)OC[C@@H]3C2)cc1C(=O)NCc1ccc(Cl)cc1 [Compound 19] | 157 | 96.9 | 204 |  |  |  |
| 0.627 | 3.33 | O=C(NCc1ccc(Cl)cc1)c1cc(O[C@H]2CCN3C(=O)OC[C@@H]3C2)c(-c2cnn(C(F)F)c2)nc1OCCO [Compound 84] | 116 | 113 | 140 |  |  |  |
| 0.0532 | 8.36 | COc1nc(-c2nc(C)no2)c(O[C@H]2CCN3C(=O)OC[C@@H]3C2)cc1C(=O)NCc1ccc(Cl)cc1 [Compound 82] | 83.5 | 73.9 | 103 |  |  |  |

— patent publication US20240083910A1, “AMIDO-SUBSTITUTED PYRIDYL COMPOUNDS AND METHODS OF USE THEREOF FOR THE TREATMENT OF HERPESVIRUSES” (Merck Sharp & Dohme LLC, priority 2020, published 2024)
